Values joined by “and” are separate entries in the source; they are usually repeats but may differ in a detail not shown here. Equal values may be shown once.
Tested on: CD2F1 mice, P1798 lymphosarcoma sc, tumor weight T/C
Test: NCI In Vivo Anticancer Drug Screen. Data for tumor model P1798 Lymphosarcoma (subcutaneous) in CD2F1 (CDF1) mice
Conditions: endpoint: mean tumor weight, higher = larger tumour
Method: The antitumor activity of compounds was measured in mice bearing transplantable tumors. Survival or tumor size were measured and the results are expressed as the measurement made in the treated group (T) divided by the measurement made in the vehicle treated control group (C). The tumor model used in this assay is P1798 Lymphosarcoma (subcutaneous) in CD2F1 (CDF1) mice

[1] = dose: 12.5 mg/kg/injection, schedule: Q01DX005 (sc), vehicle: steriod suspending solution
[2] = dose: 12.5 mg/kg/injection, schedule: Q01DX010 (sc), vehicle: steriod suspending solution
[3] = dose: 25.0 mg/kg/injection, schedule: Q01DX005 (sc), vehicle: steriod suspending solution
[4] = dose: 25.0 mg/kg/injection, schedule: Q02DX010 (sc), vehicle: steriod suspending solution
[5] = dose: 50.0 mg/kg/injection, schedule: Q01DX005 (sc), vehicle: steriod suspending solution
[6] = dose: 50.0 mg/kg/injection, schedule: Q02DX010 (sc), vehicle: steriod suspending solution
[7] = dose: 100.0 mg/kg/injection, schedule: Q01DX005 (sc), vehicle: steriod suspending solution
[8] = dose: 100.0 mg/kg/injection, schedule: Q02DX010 (sc), vehicle: steriod suspending solution
[9] = dose: 6.25 mg/kg/injection, schedule: Q01DX010 (ip), vehicle: saline
[10] = dose: 12.5 mg/kg/injection, schedule: Q01DX010 (ip), vehicle: saline
[11] = dose: 25.0 mg/kg/injection, schedule: Q01DX010 (ip), vehicle: saline
[12] = dose: 50.0 mg/kg/injection, schedule: Q01DX010 (ip), vehicle: saline
[13] = dose: 25.0 mg/kg/injection, schedule: Q03DX004 (sc), vehicle: steriod suspending solution
[14] = dose: 50.0 mg/kg/injection, schedule: Q03DX004 (sc), vehicle: steriod suspending solution
[15] = dose: 100.0 mg/kg/injection, schedule: Q03DX004 (sc), vehicle: steriod suspending solution
[16] = dose: 100.0 mg/kg/injection, schedule: Q01DX010 (ip), vehicle: saline
[17] = dose: 400.0 mg/kg/injection, schedule: Q01DX010 (ip), vehicle: saline
[18] = dose: 40.0 mg/kg/injection, schedule: Q01DX010 (ip), vehicle: saline
[19] = dose: 60.0 mg/kg/injection, schedule: Q01DX010 (ip), vehicle: saline
[20] = dose: 250.0 mg/kg/injection, schedule: Q01DX010 (sc), vehicle: steriod suspending solution
[21] = dose: 10.0 mg/kg/injection, schedule: Q01DX010 (ip), vehicle: saline
[22] = dose: 20.0 mg/kg/injection, schedule: Q01DX010 (ip), vehicle: saline

SMILES: CC(=O)[C@@]1(O)CC[C@H]2[C@@H]3C[C@H](C)C4=CC(=O)C=C[C@]4(C)[C@@]3(F)[C@@H](O)C[C@@]21C
- T/C [1]: 3 % of control
- T/C [2]: 18 % of control and 41 % of control
- T/C [3]: 3 % of control
- T/C [4]: 98 % of control
- T/C [5]: 2 % of control
- T/C [6]: 93 % of control
- T/C [7]: 1 % of control
- T/C [8]: 98 % of control

SMILES: NC(N)=NCCCC(N)C(=O)NCCCCCCCCCCNC(=O)C(N)CCCN=C(N)N (configuration not stated)
- T/C [9]: 103 % of control
- T/C [10]: 110 % of control
- T/C [11]: 78 % of control
- T/C [12]: 99 % of control

SMILES: C[C@]12C[C@H](O)[C@H]3[C@@H](CCC4=CC(=O)CC[C@@]43C)[C@@H]1CC[C@@H]2C(=O)CO
- T/C [1]: 88 % of control
- T/C [3]: 97 % of control
- T/C (dose: 25.0 mg/kg/injection, schedule: Q01DX010 (sc), vehicle: steriod suspending solution): 91 % of control and 69 % of control
- T/C [13]: 91 % of control
- T/C [5]: 63 % of control
- T/C [6]: 91 % of control
- T/C [14]: 56 % of control
- T/C (dose: 75.0 mg/kg/injection, schedule: Q01DX010 (sc), vehicle: steriod suspending solution): 105 % of control
- T/C (dose: 75.0 mg/kg/injection, schedule: Q02DX010 (sc), vehicle: steriod suspending solution): 101 % of control
- T/C [7]: 32 % of control
- T/C [8]: 101 % of control
- T/C [15]: 33 % of control

SMILES: NCCCCC(N)C(=O)NCCCCCCNC(=O)CCCCC(=O)NCCCCCCNC(=O)C(N)CCCCN (configuration not stated)
- T/C [10]: 101 % of control
- T/C [11]: 90 % of control
- T/C [12]: 94 % of control
- T/C [16]: 110 % of control

SMILES: CC(=O)[C@@]12OC(C)(C)O[C@@H]1C[C@H]1[C@@H]3C[C@H](C)C4=CC(=O)CC[C@]4(C)[C@H]3CC[C@@]12C
- T/C [1]: 72 % of control
- T/C [2]: 64 % of control
- T/C [3]: 61 % of control
- T/C [4]: 95 % of control
- T/C [13]: 56 % of control
- T/C [5]: 38 % of control
- T/C [6]: 88 % of control
- T/C [14]: 59 % of control
- T/C [7]: 13 % of control
- T/C [8]: 93 % of control
- T/C [15]: 16 % of control

SMILES: Nc1nncs1
- T/C (dose: 1.88 mg/kg/injection, schedule: Q01DX010 (ip), vehicle: saline): 93 % of control
- T/C (dose: 3.75 mg/kg/injection, schedule: Q01DX010 (ip), vehicle: saline): 68 % of control
- T/C (dose: 7.5 mg/kg/injection, schedule: Q01DX010 (ip), vehicle: saline): 69 % of control
- T/C (dose: 15.0 mg/kg/injection, schedule: Q01DX010 (ip), vehicle: saline): 52 % of control and 59 % of control
- T/C (dose: 30.0 mg/kg/injection, schedule: Q01DX010 (ip), vehicle: saline): 7 % of control

SMILES: Nc1ncnc2[nH]ncc12
- T/C (dose: 1.5 mg/kg/injection, schedule: Q01DX010 (ip), vehicle: saline): 84 % of control and 88 % of control
- T/C (dose: 3.0 mg/kg/injection, schedule: Q01DX010 (ip), vehicle: saline): 73 % of control and 88 % of control
- T/C (dose: 12.0 mg/kg/injection, schedule: Q01DX010 (ip), vehicle: saline): 43 % of control

SMILES: O=C(NCCCCC(NC(=O)c1ccccc1)C(=O)NCCCCCCNCCCCCCNC(=O)C(CCCCNC(=O)c1ccccc1)NC(=O)c1ccccc1)c1ccccc1 (configuration not stated)
- T/C [12]: 98 % of control
- T/C [16]: 85 % of control
- T/C (dose: 200.0 mg/kg/injection, schedule: Q01DX010 (ip), vehicle: saline): 116 % of control
- T/C [17]: 80 % of control

SMILES: COC1C(OC(=O)/C=C/C=C/C=C/C=C/C(=O)O)CCC2(CO2)C1C1(C)OC1CC=C(C)C (configuration not stated)
- T/C [11]: 56 % of control
- T/C [12]: 46 % of control
- T/C [16]: 28 % of control

SMILES: CN(N=O)C(=O)NC(C=O)C(O)C(O)C(O)CO (configuration not stated)
- T/C (dose: 22.5 mg/kg/injection, schedule: Q01DX010 (ip), vehicle: saline): 43 % of control
- T/C [18]: 97 % of control
- T/C (dose: 45.0 mg/kg/injection, schedule: Q01DX010 (ip), vehicle: saline): 53 % of control
- T/C [19]: 64 % of control
- T/C (dose: 90.0 mg/kg/injection, schedule: Q01DX010 (ip), vehicle: saline): 24 % of control and 29 % of control

SMILES: c1ccc(CNc2ncnc3[nH]ncc23)cc1
- T/C (dose: 16.0 mg/kg/injection, schedule: Q01DX010 (ip), vehicle: saline): 98 % of control
- T/C (dose: 32.0 mg/kg/injection, schedule: Q01DX010 (ip), vehicle: saline): 83 % of control
- T/C (dose: 64.0 mg/kg/injection, schedule: Q01DX010 (ip), vehicle: saline): 70 % of control

SMILES: OC(CBr)C(O)C(O)C(O)CBr (configuration not stated)
- T/C [11]: 62 % of control
- T/C [12]: 70 % of control and 84 % of control
- T/C [17]: 98 % of control

SMILES: COc1ccc2c(c1)CC[C@@H]1[C@@H]2CC[C@@]2(C)[C@H]1CC[C@@]2(O)C(F)=C(F)F
- T/C (dose: 111.0 mg/kg/injection, schedule: Q01DX010 (sc), vehicle: steriod suspending solution): 12 % of control
- T/C (dose: 167.0 mg/kg/injection, schedule: Q01DX010 (sc), vehicle: steriod suspending solution): 9 % of control
- T/C [20]: 10 % of control
- T/C (dose: 375.0 mg/kg/injection, schedule: Q01DX010 (sc), vehicle: steriod suspending solution): 8 % of control

SMILES: OCC1OC(n2cnc3c(=S)nc[nH]c32)C(O)C1O (configuration not stated)
- T/C [21]: 65 % of control
- T/C [22]: 54 % of control and 57 % of control
- T/C [18]: 57 % of control and 61 % of control
- T/C (dose: 80.0 mg/kg/injection, schedule: Q01DX010 (ip), vehicle: saline): 40 % of control and 60 % of control
- T/C (dose: 160.0 mg/kg/injection, schedule: Q01DX010 (ip), vehicle: saline): 61 % of control

SMILES: C1CN1c1nc(N2CC2)nc(N2CC2)n1
- T/C (dose: 0.06 mg/kg/injection, schedule: Q01DX010 (ip), vehicle: saline): 114 % of control
- T/C (dose: 0.5 mg/kg/injection, schedule: Q01DX010 (ip), vehicle: saline): 29 % of control and 37 % of control

SMILES: Nc1ccn(C2OC(CO)C(O)C2O)c(=O)n1 (configuration not stated)
- T/C [21]: 12 % of control
- T/C (dose: 18.0 mg/kg/injection, schedule: Q01DX010 (ip), vehicle: saline): 31 % of control
- T/C [22]: 10 % of control
- T/C (dose: 27.0 mg/kg/injection, schedule: Q01DX010 (ip), vehicle: saline): 12 % of control
- T/C [18]: 4 % of control and 6 % of control
- T/C [19]: 1 % of control

SMILES: NCCCCC(N)C(=O)NCCCCCCCCCCNC(=O)C(N)CCCCN (configuration not stated)
- T/C [9]: 106 % of control
- T/C [10]: 99 % of control
- T/C [11]: 122 % of control
- T/C [12]: 107 % of control

SMILES: CCC(=O)O[C@H]1CC[C@H]2[C@@H]3CC[C@H]4CC(=O)[C@H](C)C[C@]4(C)[C@H]3CC[C@]12C
- T/C (dose: 15.6 mg/kg/injection, schedule: Q01DX010 (sc), vehicle: steriod suspending solution): 110 % of control
- T/C (dose: 31.3 mg/kg/injection, schedule: Q01DX010 (sc), vehicle: steriod suspending solution): 120 % of control
- T/C (dose: 62.5 mg/kg/injection, schedule: Q01DX010 (sc), vehicle: steriod suspending solution): 112 % of control
- T/C (dose: 125.0 mg/kg/injection, schedule: Q01DX010 (sc), vehicle: steriod suspending solution): 91 % of control and 77 % of control
- T/C [20]: 88 % of control
- T/C (dose: 500.0 mg/kg/injection, schedule: Q01DX010 (sc), vehicle: steriod suspending solution): 96 % of control
- T/C (dose: 1000.0 mg/kg/injection, schedule: Q01DX010 (sc), vehicle: steriod suspending solution): 88 % of control

SMILES: Nc1nc(=S)c2[nH]cnc2[nH]1
- T/C (dose: 0.63 mg/kg/injection, schedule: Q01DX010 (ip), vehicle: saline): 74 % of control
- T/C (dose: 1.25 mg/kg/injection, schedule: Q01DX010 (ip), vehicle: saline): 51 % of control and 72 % of control
- T/C (dose: 2.5 mg/kg/injection, schedule: Q01DX010 (ip), vehicle: saline): 44 % of control

SMILES: CCC1=C(c2cc(Cl)c3ccccc3c2OCC(=O)O)OC(CC)(C(=O)c2cc(Cl)c3ccccc3c2OCC(=O)O)CC1 (configuration not stated)
- T/C (dose: 240.0 mg/kg/injection, schedule: Q01DX010 (ip), vehicle: steriod suspending solution): 74 % of control
- T/C (dose: 480.0 mg/kg/injection, schedule: Q01DX010 (ip), vehicle: steriod suspending solution): 80 % of control

SMILES: CS(=O)(=O)OCCCl
- T/C (dose: 9.4 mg/kg/injection, schedule: Q01DX010 (ip), vehicle: saline): 155 % of control
- T/C (dose: 18.8 mg/kg/injection, schedule: Q01DX010 (ip), vehicle: saline): 171 % of control
- T/C (dose: 37.5 mg/kg/injection, schedule: Q01DX010 (ip), vehicle: saline): 186 % of control
- T/C (dose: 75.0 mg/kg/injection, schedule: Q01DX010 (ip), vehicle: saline): 86 % of control
